7 molecules from US20130115671A1, “ENZYMES FROM CONIDIOBOLUS BREFELDIANUS AND PROCESS FOR PREPARATION THEREOF” (Council of Scientific and Industrial Research, priority 2010, published 2013) can be followed below.

Values joined by “and” are separate entries in the source; they are usually repeats but may differ in a detail not shown here. Equal entries are not always repeated.

Data set [1] relates to protease from Conidiobolus brefeldianus MTCC 5185. As to the kind of experiment: Stability of protease in presence of organic solvents at 28° C. The format is physicochemical. The settings on record: crude protease, 20% (v/v) solvent. Set-up: key to residual activity of protease, 0 h / residual activity of protease, 12 h: % of initial activity with respective solvent (initial = 100%). The procedure:
This example illustrates the effect of water miscible as well as water immiscible organic solvents on stability of crude protease at 28° C. […] Samples were removed at different time intervals and residual activity was estimated. Sample without organic solvent served as control. Initial activity with respective solvents was taken as 100% (Table 17). […] (Table 17).

Data set [2] has the same test system. As to the kind of experiment: Stability of protease in presence of organic solvents at 37° C. The settings on record: 20% (v/v) solvent; for Residual Activity (%) of protease, 30 min: pH 7, 30 min; for Residual Activity (%) of protease, 60 min: pH 7, 60 min; for Residual Activity (%) of protease, 120 min: pH 7, 120 min; for Residual Activity (%) of protease, 240 min: pH 7, 240 min; for Residual Activity (%) of protease, 0: crude protease, pH 7, 0 min. The class given is physicochemical. The protocol:
This example illustrates the effect of water miscible as well as water immiscible organic solvents on stability of crude protease at 37° C. […] Samples were removed at different time intervals and residual activity was estimated. Sample without organic solvent served as control.

The test system of data set [3] is protease of Conidiobolus brefeldianus MTCC 5185. Description: Effect of inhibitors on protease activity (PMSF, EDTA, iodoacetate, DMSO). The format is biochemical. The source says:
This example illustrates the effect of inhibitors on protease activity of Conidiobolus brefeldianus MTCC 5185. Following inhibitors were studied: phenylmethylsulfonyl fluoride (PMSF), ethylene-diaminetetraacetic acid (EDTA), iodoacetic acid, and dimeth ylsulphoxide (DMSO). The crude culture filtrate grown as described in example 3 was concentrated by ultra-filtration on PM-10 and YM-3 membranes as described in example 27 and used for inhibition studies. Both the protease preparations were pre-incubated in 100 mM Tris-HCl buffer (pH 8.0) with each inhibitor for 1 h and the residual protease activity was measured at 50° C., pH 9.0. Protease without inhibitor served as control.

The test system is the same in data set [4]. Description: Effect of inhibitors on protease activity (TPCK, TLCK, Benzamidine). The format is biochemical. Particulars: 5 mM inhibitor, crude protease pre-incubated 30 min, pH 8.0. The procedure: This example illustrates the effect of inhibitors on protease activity of Conidiobolus brefeldianus MTCC 5185. Following inhibitors were studied: N-tosyl-L-phenylalanine chloromethyl ketone (TPCK), N-tosyl-L-lysine chloromethyl ketone (TLCK), and Benzamidine. Crude protease was pre-incubated with each inhibitor in 100 mM Tris-HCl buffer (pH 8.0) for 30 min and the residual protease activity was measured 50° C., pH 9.0. Protease without inhibitor served as control.

The mark [5] stands for this setting: pre-incubated 1 h, pH 8.0, 20 mM EDTA, 10 mM Iodoacetate, 1 mM PMSF (in DMSO), DMSO.

Take `C[S+](C)[O-]` [DMSO, dimethylsulphoxide]: in data set [1], the “residual activity of protease, 0 h” value is 100; the “residual activity of protease, 5 h” value is 98.12; the “residual activity of protease, 12 h” value amounted to 54.55. In data set [2], the “Residual Activity (%) of protease, 30 min” value came to 69.48%; the “Residual Activity (%) of protease, 60 min” value is 68.94%; the “Residual Activity (%) of protease, 120 min” value came out at 48.70%; the “Residual Activity (%) of protease, 240 min” value amounted to 28.53%. In addition, in data set [2], the “Residual Activity (%) of protease, 0” value stood at 100%. In data set [3] (setting [5]), the “Inhibition (%) PM-10 Retentate” value is 3.02% and the “Inhibition (%) YM-3 Retentate” value worked out at 1.37%.

Take `O=C(O)CN(CCN(CC(=O)O)CC(=O)O)CC(=O)O` [EDTA, ethylene-diaminetetraacetic acid]: in data set [3] (setting [5]), the “Inhibition (%) PM-10 Retentate” value is recorded as 0.0% and the “Inhibition (%) YM-3 Retentate” value stood at 3.93%.

For the molecule `O=C(O)CI` [Iodoacetate, iodoacetic acid], in data set [3] (pH 8), the “Inhibition (%) PM-10 Retentate” value worked out at 0.0% and the “Inhibition (%) YM-3 Retentate” value came out at 16.54%.

Regarding `CO` [Methanol, methanol], in data set [1], the “residual activity of protease, 0 h” value was 100; the “residual activity of protease, 5 h” value is 100.13; the “residual activity of protease, 12 h” value was 52.64. Besides, in data set [2], the “Residual Activity (%) of protease, 30 min” value is recorded as 59.43%; the “Residual Activity (%) of protease, 60 min” value worked out at 59.45%; the “Residual Activity (%) of protease, 120 min” value was 48.36%; the “Residual Activity (%) of protease, 240 min” value came to 16.60%. For the same molecule, the “Residual Activity (%) of protease, 0” value in data set [2] worked out at 100%.

`O=S(=O)(F)Cc1ccccc1` [PMSF, phenylmethylsulfonyl fluoride]: in data set [3] (1 mM PMSF), the “inhibition of protease” value is “completely inhibited”. In addition, in data set [3] (setting [5]), the “Inhibition (%) PM-10 Retentate” value is 79.27% and the “Inhibition (%) YM-3 Retentate” value is given as 90.24%.

For the molecule “N-tosyl-L-lysine chloromethyl ketone [TLCK]”, in data set [4], the “Inhibition (%)” value was 29% and 29.22%.

Consider “N-tosyl-L-phenylalanine chloromethyl ketone [TPCK]”, for which, in data set [4], the “Inhibition (%)” value is 9% and 9.02%.
